In patent US20050070510A1, “Substituted tetracycline compounds as synergistic antifungal agents” (Paratek Pharmaceuticals, Inc., priority 2001, published 2005):

Tested on: COS-1 cells
Test: In vitro mammalian cytotoxicity assay (Resazurin)

How did the “In Vitro Cytotoxicity” value turn out when `CN(C)[C@@H]1C(O)=C(C(N)=O)C(=O)[C@@]2(C#N)C(O)=C3C(=O)c4c(O)ccc(-c5ccc(CNC(C)(C)C)o5)c4C[C@@]3(N)C[C@@]12N` [SY] was run?
The value was “* (toxicities greater than >25 μg/ml are represented by *)”.

With `CC(C)c1cccc(-c2ccc(O)c3c2C[C@@]2(N)C[C@@]4(N)[C@H](N(C)C)C(O)=C(C(N)=O)C(=O)[C@@]4(C#N)C(O)=C2C3=O)c1` [OI] as the compound, how does the “In Vitro Cytotoxicity” value read?
Its value is “** (toxicities less than 25 μg/mL are represented by **)”.

`CN(C)c1cc(C#CCNS(C)(=O)=O)c(O)c2c1C[C@@]1(N)C[C@@]3(N)[C@H](N(C)C)C(O)=C(C(N)=O)C(=O)[C@@]3(C#N)C(O)=C1C2=O` [IP] was tested. Which “In Vitro Cytotoxicity” value did it give?
The value was “* (toxicities greater than >25 μg/ml are represented by *)”.

`CN(C)[C@@H]1C(O)=C(C(N)=O)C(=O)[C@@]2(C#N)C(O)=C3C(=O)c4c(O)ccc(-c5ccc(I)c(C=O)c5)c4C[C@@]3(N)C[C@@]12N` [PL] was tested. Which “In Vitro Cytotoxicity” value did it give?
Its value is “** (toxicities less than 25 μg/mL are represented by **)”.

For `Cc1cc(C)cc(-c2cc(N(C)C)c3c(c2O)C(=O)C2=C(O)[C@]4(C#N)C(=O)C(C(N)=O)=C(O)[C@@H](N(C)C)[C@]4(N)C[C@]2(N)C3)c1` [HD], which “In Vitro Cytotoxicity” value is on record?
The value was “** (toxicities less than 25 μg/mL are represented by **)”.

For `CN(C)c1cc(CNC(=O)NCC(C)(C)C)c(O)c2c1C[C@@]1(N)C[C@@]3(N)[C@H](N(C)C)C(O)=C(C(N)=O)C(=O)[C@@]3(C#N)C(O)=C1C2=O` [MC], which “In Vitro Cytotoxicity” value is on record?
Its value is “* (toxicities greater than >25 μg/ml are represented by *)”.

Which “In Vitro Cytotoxicity” value does the source give for `CC(C)NCc1ccc(-c2ccc(O)c3c2C[C@@]2(N)C[C@@]4(N)[C@H](N(C)C)C(O)=C(C(N)=O)C(=O)[C@@]4(C#N)C(O)=C2C3=O)cc1` [OT] here?
The value was “* (toxicities greater than >25 μg/ml are represented by *)”.

With `CCOC(=O)CNCc1ccc(OC)c(-c2ccc(O)c3c2C[C@@]2(N)C[C@@]4(N)[C@H](N(C)C)C(O)=C(C(N)=O)C(=O)[C@@]4(C#N)C(O)=C2C3=O)c1` [NK] as the compound, how does the “In Vitro Cytotoxicity” value read?
The value was “* (toxicities greater than >25 μg/ml are represented by *)”.

How did the “In Vitro Cytotoxicity” value turn out when `Cc1ccc(C#Cc2ccc(O)c3c2C[C@@]2(N)C[C@@]4(N)[C@H](N(C)C)C(O)=C(C(N)=O)C(=O)[C@@]4(C#N)C(O)=C2C3=O)cc1` [GI] was run?
Its value is “** (toxicities less than 25 μg/mL are represented by **)”.

For `CN(C)c1cc(C#CC2(O)CCCCC2)c(O)c2c1C[C@@]1(N)C[C@@]3(N)[C@H](N(C)C)C(O)=C(C(N)=O)C(=O)[C@@]3(C#N)C(O)=C1C2=O` [FP], which “In Vitro Cytotoxicity” value is on record?
The value was “* (toxicities greater than >25 μg/ml are represented by *)”.

How did the “In Vitro Cytotoxicity” value turn out when `CN(C)CCNC(=O)c1ccc(-c2ccc(O)c3c2C[C@@]2(N)C[C@@]4(N)[C@H](N(C)C)C(O)=C(C(N)=O)C(=O)[C@@]4(C#N)C(O)=C2C3=O)cc1` [PC] was run?
Its value is “* (toxicities greater than >25 μg/ml are represented by *)”.

For `CN(C)[C@@H]1C(O)=C(C(N)=O)C(=O)[C@@]2(C#N)C(O)=C3C(=O)c4c(O)cccc4/C(=C\c4cc(F)cc(F)c4)[C@@]3(N)[C@H](O)[C@@]12N` [DR], which “In Vitro Cytotoxicity” value is on record?
Its value is “* (toxicities greater than >25 μg/ml are represented by *)”.

For `COCC#Cc1ccc(O)c2c1C[C@@]1(N)C[C@@]3(N)[C@H](N(C)C)C(O)=C(C(N)=O)C(=O)[C@@]3(C#N)C(O)=C1C2=O` [HI], which “In Vitro Cytotoxicity” value is on record?
The value was “* (toxicities greater than >25 μg/ml are represented by *)”.

With `CC(C)COC(=O)NCc1ccc(-c2ccc(O)c3c2C[C@@]2(N)C[C@@]4(N)[C@H](N(C)C)C(O)=C(C(N)=O)C(=O)[C@@]4(C#N)C(O)=C2C3=O)cc1` [NS] as the compound, how does the “In Vitro Cytotoxicity” value read?
Its value is “** (toxicities less than 25 μg/mL are represented by **)”.

Which “In Vitro Cytotoxicity” value does the source give for `CN(C)[C@@H]1C(O)=C(C(N)=O)C(=O)[C@@]2(C#N)C(O)=C3C(=O)c4c(O)ccc(CNCc5ccc[nH]5)c4C[C@@]3(N)C[C@@]12N` [SI] here?
The value was “* (toxicities greater than >25 μg/ml are represented by *)”.

Which “In Vitro Cytotoxicity” value does the source give for `CN(C)CC(=O)Nc1ccc2c(c1O)C(=O)C1=C(O)[C@]3(C#N)C(=O)C(C(N)=O)=C(O)[C@@H](N(C)C)[C@]3(N)C[C@]1(N)C2` [KU] here?
Its value is “* (toxicities greater than >25 μg/ml are represented by *)”.

How did the “In Vitro Cytotoxicity” value turn out when `CN(C)[C@@H]1C(O)=C(C(N)=O)C(=O)[C@@]2(C#N)C(O)=C3C(=O)c4c(O)cccc4/C(=C\c4ccc(Cl)cc4)[C@@]3(N)[C@H]([S+](N)[O-])[C@@]12N` (stereo partly drawn) [BY] was run?
Its value is “** (toxicities less than 25 μg/mL are represented by **)”.

For `CC(C)NCc1ccc(-c2ccc(O)c3c2C[C@@]2(N)C[C@@]4(N)[C@H](N(C)C)C(O)=C(C(N)=O)C(=O)[C@@]4(C#N)C(O)=C2C3=O)c2ccccc12` [OE], which “In Vitro Cytotoxicity” value is on record?
The value was “** (toxicities less than 25 μg/mL are represented by **)”.

With `CN(C)[C@@H]1C(O)=C(C(N)=O)C(=O)[C@@]2(C#N)C(O)=C3C(=O)c4c(ccc(C(C)(C)C)c4O)[C@H](N)[C@@]3(N)[C@H](O)[C@@]12N` [BB] as the compound, how does the “In Vitro Cytotoxicity” value read?
The value was “** (toxicities less than 25 μg/mL are represented by **)”.

Which “In Vitro Cytotoxicity” value does the source give for `CN(C)Cc1cccc(-c2ccc(O)c3c2C[C@@]2(N)C[C@@]4(N)[C@H](N(C)C)C(O)=C(C(N)=O)C(=O)[C@@]4(C#N)C(O)=C2C3=O)c1` [HQ] here?
Its value is “* (toxicities greater than >25 μg/ml are represented by *)”.

With `CN(C)c1cc(-c2ccc(F)cc2F)c(O)c2c1C[C@@]1(N)C[C@@]3(N)[C@H](N(C)C)C(O)=C(C(N)=O)C(=O)[C@@]3(C#N)C(O)=C1C2=O` [EX] as the compound, how does the “In Vitro Cytotoxicity” value read?
Its value is “** (toxicities less than 25 μg/mL are represented by **)”.

How did the “In Vitro Cytotoxicity” value turn out when `CN(C)[C@@H]1C(O)=C(C(N)=O)C(=O)[C@@]2(C#N)C(O)=C3C(=O)c4c(O)ccc(/C=C/c5ccc(C(F)(F)F)cc5)c4C[C@@]3(N)C[C@@]12N` [HK] was run?
Its value is “** (toxicities less than 25 μg/mL are represented by **)”.

`CCCCOc1ccc(O)c2c1C[C@@]1(N)C[C@@]3(N)[C@H](N(C)C)C(O)=C(C(N)=O)C(=O)[C@@]3(C#N)C(O)=C1C2=O` [DL] was tested. Which “In Vitro Cytotoxicity” value did it give?
Its value is “** (toxicities less than 25 μg/mL are represented by **)”.

`COc1cc(-c2ccc(O)c3c2C[C@@]2(N)C[C@@]4(N)[C@H](N(C)C)C(O)=C(C(N)=O)C(=O)[C@@]4(C#N)C(O)=C2C3=O)cc(OC)c1OC` [OK] was tested. Which “In Vitro Cytotoxicity” value did it give?
Its value is “** (toxicities less than 25 μg/mL are represented by **)”.

With `CN(C)c1cc(NC(=O)Nc2ccc([N+](=O)O)cc2)c(O)c2c1C[C@@]1(N)C[C@@]3(N)[C@H](N(C)C)C(O)=C(C(N)=O)C(=O)[C@@]3(C#N)C(O)=C1C2=O` [IC] as the compound, how does the “In Vitro Cytotoxicity” value read?
Its value is “* (toxicities greater than >25 μg/ml are represented by *)”.

With `CN(C)[C@@H]1C(O)=C(C(N)=O)C(=O)[C@@]2(C#N)C(O)=C3C(=O)c4c(O)ccc(C#CC5CCCCC5)c4C[C@@]3(N)C[C@@]12N` [FI] as the compound, how does the “In Vitro Cytotoxicity” value read?
The value was “** (toxicities less than 25 μg/mL are represented by **)”.

`CN(C)[C@@H]1C(O)=C(C(N)=O)C(=O)[C@@]2(C#N)C(O)=C3C(=O)c4c(ccc(Nc5ccc(-c6ccccc6)s5)c4O)[C@H](N)[C@@]3(N)[C@H](O)[C@@]12N` [DT] was tested. Which “In Vitro Cytotoxicity” value did it give?
Its value is “** (toxicities less than 25 μg/mL are represented by **)”.

`CN(C)c1cc(NCc2ccc([N+](=O)O)cc2)c(O)c2c1C[C@@]1(N)C[C@@]3(N)[C@H](N(C)C)C(O)=C(C(N)=O)C(=O)[C@@]3(C#N)C(O)=C1C2=O` [VH] was tested. Which “In Vitro Cytotoxicity” value did it give?
The value was “** (toxicities less than 25 μg/mL are represented by **)”.

How did the “In Vitro Cytotoxicity” value turn out when `CC(=O)O[C@H]1[C@@]2(N)C(=C(O)[C@]3(C#N)C(=O)C(C(N)=O)=C(O)[C@@H](N(C)C)[C@]13N)C(=O)c1c(ccc(N=[N+]=N)c1O)[C@@H]2N` [DB] was run?
The value was “** (toxicities less than 25 μg/mL are represented by **)”.

For `CCOC(=O)CNCc1ccc(-c2ccc(O)c3c2C[C@@]2(N)C[C@@]4(N)[C@H](N(C)C)C(O)=C(C(N)=O)C(=O)[C@@]4(C#N)C(O)=C2C3=O)cc1` [OS], which “In Vitro Cytotoxicity” value is on record?
The value was “** (toxicities less than 25 μg/mL are represented by **)”.

With `CN(C)[C@@H]1C(O)=C(C(N)=O)C(=O)[C@@]2(C#N)C(O)=C3C(=O)c4c(O)ccc(C#Cc5cccc(C#N)c5)c4C[C@@]3(N)C[C@@]12N` [GQ] as the compound, how does the “In Vitro Cytotoxicity” value read?
Its value is “* (toxicities greater than >25 μg/ml are represented by *)”.

For `CCC#Cc1ccc(O)c2c1C[C@@]1(N)C[C@@]3(N)[C@H](N(C)C)C(O)=C(C(N)=O)C(=O)[C@@]3(C#N)C(O)=C1C2=O` [JW], which “In Vitro Cytotoxicity” value is on record?
The value was “** (toxicities less than 25 μg/mL are represented by **)”.

With `CC(C)COC(=O)Nc1cc(N(C)C)c2c(c1O)C(=O)C1=C(O)[C@]3(C#N)C(=O)C(C(N)=O)=C(O)[C@@H](N(C)C)[C@]3(N)C[C@]1(N)C2` [KQ] as the compound, how does the “In Vitro Cytotoxicity” value read?
Its value is “** (toxicities less than 25 μg/mL are represented by **)”.

Which “In Vitro Cytotoxicity” value does the source give for `CN(C)[C@@H]1C(O)=C(C(N)=O)C(=O)[C@@]2(C#N)C(O)=C3C(=O)c4c(ccc(CNC(=O)c5ccccc5)c4O)C[C@@]3(N)C[C@@]12N` [RW] here?
The value was “* (toxicities greater than >25 μg/ml are represented by *)”.

`CCc1cc(CNC(=O)c2cccnc2)c(O)c2c1C[C@@]1(N)C[C@@]3(N)[C@H](N(C)C)C(O)=C(C(N)=O)C(=O)[C@@]3(C#N)C(O)=C1C2=O` [IY] was tested. Which “In Vitro Cytotoxicity” value did it give?
The value was “* (toxicities greater than >25 μg/ml are represented by *)”.

For `CN(C)c1cc(NC(=O)Nc2cccc3ccccc23)c(O)c2c1C[C@@]1(N)C[C@@]3(N)[C@H](N(C)C)C(O)=C(C(N)=O)C(=O)[C@@]3(C#N)C(O)=C1C2=O` [IA], which “In Vitro Cytotoxicity” value is on record?
The value was “* (toxicities greater than >25 μg/ml are represented by *)”.

How did the “In Vitro Cytotoxicity” value turn out when `COc1ccc(-c2ccc(O)c3c2C[C@@]2(N)C[C@@]4(N)[C@H](N(C)C)C(O)=C(C(N)=O)C(=O)[C@@]4(C#N)C(O)=C2C3=O)c(OC)c1OC` [RT] was run?
Its value is “** (toxicities less than 25 μg/mL are represented by **)”.

How did the “In Vitro Cytotoxicity” value turn out when `CN(C)c1ccc(-c2cc(F)c(O)c3c2C[C@@]2(N)C[C@@]4(N)[C@H](N(C)C)C(O)=C(C(N)=O)C(=O)[C@@]4(C#N)C(O)=C2C3=O)cc1` [OX] was run?
Its value is “** (toxicities less than 25 μg/mL are represented by **)”.

For `CN(C)[C@@H]1C(O)=C(C(N)=O)C(=O)[C@@]2(C#N)C(O)=C3C(=O)c4c(O)ccc(-c5cncc(Br)c5)c4C[C@@]3(N)C[C@@]12N` [VF], which “In Vitro Cytotoxicity” value is on record?
The value was “** (toxicities less than 25 μg/mL are represented by **)”.

Which “In Vitro Cytotoxicity” value does the source give for `CC(=O)c1ccc(O)c2c1[C@H](N)[C@]1(N)C(=C(O)[C@]3(C#N)C(=O)C(C(N)=O)=C(O)[C@@H](N(C)C)[C@]3(N)[C@H]1O)C2=O` [CR] here?
Its value is “** (toxicities less than 25 μg/mL are represented by **)”.

Which “In Vitro Cytotoxicity” value does the source give for `CN(C)[C@@H]1C(O)=C(C(N)=O)C(=O)[C@@]2(C#N)C(O)=C3C(=O)c4c(O)ccc(-c5ccccc5)c4C[C@@]3(N)C[C@@]12N` [CX] here?
The value was “* (toxicities greater than >25 μg/ml are represented by *)”.

Which “In Vitro Cytotoxicity” value does the source give for `CN(C)[C@@H]1C(O)=C(C(N)=O)C(=O)[C@@]2(C#N)C(O)=C3C(=O)c4c(O)c(C(=O)NCC5CCCO5)cc(-c5ccc(F)cc5)c4C[C@@]3(N)C[C@@]12N` (stereo partly drawn) [KZ] here?
The value was “* (toxicities greater than >25 μg/ml are represented by *)”.
